Here are results for two compounds from publication PMC2874192 (Cancer research, 2010).

The conditions of series [1]: humans, within 24 h, primarily through kidneys; cited from earlier work.
The next series concerns CXCR4 receptor. As to conditions: Cu-bound vs unbound AMD3100; cited from earlier work.
For series [2] the following is noted: no reference given; cited from earlier work.
The subject of series [3] is U87 and U87-stb-CXCR4 glioblastoma xenografts. It counts as in vivo. As to conditions: whole body image at 90 min.
For series [4] the test system is unchanged. Nature of the series: Ex vivo biodistribution in subcutaneous brain tumor model. As to conditions: 740 kBq, 90 min after injection. More on the design: species or system NOD/SCID mice.

For the compound `c1cc(CN2CCCNCCNCCCNCC2)ccc1CN1CCCNCCNCCCNCC1` [AMD3100], in series [1], the “drug eliminated as parent” value was about 70%. The “increase of affinity to the CXCR4 receptor by Cu bound to the cyclam” value in the series with CXCR4 receptor is 6 fold. For the same compound, in series [2], the plasma protein bound is on record as about 58%.
Turning to `[Cl][64Cu][Cl]` [[^64Cu]CuCl2], in series [3], the “distribution of radiotracer (PET)” value is given as “uniform distribution”. The “radioactivity distribution (ex vivo biodistribution)” value in series [4] is recorded as “uniform”.
